Source: PMC11561307, “Ultra-inert lanthanide chelates as mass tags for multiplexed bioanalysis” (Nature Communications, 2024)

Experiment: Kinetic inertness: acid-assisted dechelation in excess HCl
Type: physicochemical
Details: for half-life / half-life, h: Figure 2A; for t½ (0.1 M HCl, 80 °C) / t½ (1.0 M HCl, 80 °C) / t½ (6.0 M HCl, 80 °C) / t½ (0.1 M HCl, 25 °C): dechelation half-life, HPLC-UV after 1 h, 1 day, 1 week, 1 month, ± error of the fit; for t½ (0.1 M HCl, 80 °C) / t½ (0.1 M HCl, 25 °C): 0.5 mM chelate in 0.1 M HCl; for t½ (0.1 M HCl, 80 °C) / t½ (1.0 M HCl, 80 °C) / t½ (0.1 M HCl, 25 °C): exponential decay fit; for t½ (1.0 M HCl, 80 °C): 0.5 mM chelate in 1.0 M HCl; for t½ (6.0 M HCl, 80 °C): 0.5 mM chelate in 6.0 M HCl, fit y = exp(−x/t), t½ = ln(2) × t; for abundance of intact chelate: section above Supp. Fig 16, head with acid, temperature and time not given

half-life (0.1 M HCl, 25 °C)	half-life, h (0.1 M HCl, 80 °C)	half-life, h (1.0 M HCl, 80 °C)	half-life, h (6.0 M HCl, 80 °C)	t½ (0.1 M HCl, 80 °C) (80 °C)	t½ (1.0 M HCl, 80 °C) (80 °C)	t½ (6.0 M HCl, 80 °C) (80 °C)	half-life, h (0.1 M HCl, 25 °C)	half-life (1.0 M HCl, 80 °C)	half-life (6.0 M HCl, 80 °C)	t½ (0.1 M HCl, 25 °C) (25 °C)	abundance of intact chelate	half-life (0.1 M HCl, 80 °C)	intact chelate (ratio NO2BnDOTA/[Lu(NO2BnDOTA)]) (0.1 M HCl at 80 °C after 1 h, HPLC-UV, initial and repeated injection identical)	estimated half-life (6.0 M HCl at 80 °C)	SMILES
–	too stable	–	–	too stable	–	–	too stable	13200 h	68.2 h	too stable	100.0%	–	–	–	O=C([O-])CN1CCN2CCN(CC(=O)[O-])CCN(CC1)Cc1cccc(n1)-c1cnnn1Cc1cc(-c3ccccc3)cc(n1)C2.[Ho+3] [Ph{Ho}]
–	too stable	too stable	–	too stable	too stable	–	too stable	–	1360 h	too stable	100.0%	–	–	–	O=C([O-])CN1CCN2CCN(CC(=O)[O-])CCN(CC1)Cc1cccc(n1)-c1cnnn1Cc1cc(-c3ccccc3)cc(n1)C2.[Tm+3] [Ph{Tm}]
–	–	–	–	too unstable	too unstable	too unstable	–	–	–	–	38.9%	–	–	–	O=C([O-])CN1CCN2CCN(CC(=O)[O-])CCN(CC1)Cc1cccc(n1)-c1cnnn1Cc1cc(-c3ccccc3)cc(n1)C2.[Ca+2] [Ph{Ca}]
–	–	–	–	–	–	–	–	–	–	too stable	100.0%	–	–	–	O=C([O-])CN1CCN2CCN(CC(=O)[O-])CCN(CC1)Cc1cccc(n1)-c1cnnn1Cc1cc(-c3ccccc3)cc(n1)C2.[Y+3] [Ph{Y}]
–	–	–	–	–	–	too unstable	–	–	–	–	–	–	76%	–	O=C([O-])CN1CCN(CC(=O)[O-])CCN(CC(=O)[O-])C(Cc2ccc([N+](=O)[O-])cc2)CN(CC(=O)[O-])CC1.[Lu+3] (stereo not drawn) [[Lu(NO2BnDOTA)], reference compound]
–	–	–	–	too unstable	too unstable	too unstable	–	–	–	–	98.7%	–	–	–	O=C([O-])CN1CCN2CCN(CC(=O)[O-])CCN(CC1)Cc1cccc(n1)-c1cn(nn1)Cc1cc(-c3ccccc3)cc(n1)C2.[Lu+3] [1,4-cz-[Lu(PhL1)]]
–	too stable	too stable	–	too stable	too stable	–	too stable	–	4690 h	too stable	100.0%	–	–	–	O=C([O-])CN1CCN2CCN(CC(=O)[O-])CCN(CC1)Cc1cccc(n1)-c1cnnn1Cc1cc(-c3ccccc3)cc(n1)C2.[Yb+3] [Ph{Yb}]
–	too stable	–	–	too stable	–	–	too stable	59200 h	343 h	too stable	100.0%	–	–	–	O=C([O-])CN1CCN2CCN(CC(=O)[O-])CCN(CC1)Cc1cccc(n1)-c1cnnn1Cc1cc(-c3ccccc3)cc(n1)C2.[Er+3] [Ph{Er}]

The remaining lines, values behind:

SMILES	half-life (0.1 M HCl, 25 °C)	half-life, h (0.1 M HCl, 80 °C)	half-life, h (1.0 M HCl, 80 °C)	half-life, h (6.0 M HCl, 80 °C)	t½ (0.1 M HCl, 80 °C) (80 °C)	t½ (1.0 M HCl, 80 °C) (80 °C)	t½ (6.0 M HCl, 80 °C) (80 °C)	half-life, h (0.1 M HCl, 25 °C)	half-life (1.0 M HCl, 80 °C)	half-life (6.0 M HCl, 80 °C)	t½ (0.1 M HCl, 25 °C) (25 °C)	abundance of intact chelate	half-life (0.1 M HCl, 80 °C)	intact chelate (ratio NO2BnDOTA/[Lu(NO2BnDOTA)]) (0.1 M HCl at 80 °C after 1 h, HPLC-UV, initial and repeated injection identical)	estimated half-life (6.0 M HCl at 80 °C)
O=C([O-])CN1CCN2CCN(CC(=O)[O-])CCN(CC1)Cc1cccc(n1)-c1cnnn1Cc1cc(-c3ccccc3)cc(n1)C2.[Ce+3] [Ph{Ce}]	16.5 h	too unstable	too unstable	too unstable	too unstable	too unstable	too unstable	–	–	–	–	–	–	–	–
O=C([O-])CN1CCN2CCN(CC(=O)[O-])CCN(CC1)Cc1cccc(n1)-c1cnnn1Cc1cc(-c3ccccc3)cc(n1)C2.[Tb+3] [Ph{Tb}]	–	–	–	–	–	–	–	too stable	372 h	2.1 h	too stable	–	31700 h	–	–
O=C([O-])CN1CCN(CC(=O)[O-])CCN(CC(=O)[O-])C(Cc2ccc([N+](=O)[O-])cc2)CN(CC(=O)[O-])CC1.[Gd+3] (stereo not drawn) [[Gd(NO2BnDOTA)], reference compound]	–	–	–	–	–	–	too unstable	–	–	–	–	–	–	–	–
O=C([O-])CN1CCN(CC(=O)[O-])CCN(CC(=O)[O-])C(Cc2ccc([N+](=O)[O-])cc2)CN(CC(=O)[O-])CC1.[La+3] (stereo not drawn) [[La(NO2BnDOTA)], reference compound]	–	–	–	–	–	too unstable	too unstable	–	–	–	–	–	–	–	–
O=C([O-])CN1CCN2CCN(CC(=O)[O-])CCN(CC1)Cc1cccc(n1)-c1cnnn1Cc1cc(-c3ccccc3)cc(n1)C2.[La+3] [Ph{La}]	2.48 h	too unstable	too unstable	too unstable	too unstable	too unstable	too unstable	–	–	–	–	–	–	–	–
O=C([O-])CN1CCN2CCN(CC(=O)[O-])CCN(CC1)Cc1cccc(n1)-c1cnnn1Cc1cc(-c3ccccc3)cc(n1)C2.[Gd+3] [Ph{Gd}]	–	–	–	–	–	–	–	too stable	30.4 h	0.17 h	too stable	–	2470 h	–	–
O=C([O-])CN1CCN2CCN(CC(=O)[O-])CCN(CC1)Cc1cccc(n1)-c1cnnn1Cc1cc(-c3ccccc3)cc(n1)C2.[Dy+3] [Ph{Dy}]	–	–	–	–	–	–	–	too stable	3500 h	12 h	too stable	100.0%	95000 h	–	–
O=C([O-])CN1CCN2CCN(CC(=O)[O-])CCN(CC1)Cc1cccc(n1)-c1cnnn1Cc1cc(-c3ccccc3)cc(n1)C2.[Nd+3] [Ph{Nd}]	179 h	–	too unstable	too unstable	–	too unstable	too unstable	–	–	–	–	–	2.55 h	–	–
O=C([O-])CN1CCN2CCN(CC(=O)[O-])CCN(CC1)Cc1cccc(n1)-c1cn(nn1)Cc1cc(-c3ccccc3)cc(n1)C2.[Gd+3] [1,4-cz-[Gd(PhL1)]]	–	–	–	–	too unstable	too unstable	too unstable	–	–	–	–	97.8%	–	–	–
O=C([O-])CN1CCN2CCN(CC(=O)[O-])CCN(CC1)Cc1cccc(n1)-c1cnnn1Cc1cc(-c3ccccc3)cc(n1)C2.[Lu+3] [Ph{Lu}]	–	too stable	too stable	–	too stable	too stable	–	too stable	–	25300 h	too stable	100.0%	–	–	~3 years
O=C([O-])CN1CCN2CCN(CC(=O)[O-])CCN(CC1)Cc1cccc(n1)-c1cnnn1Cc1cc(-c3ccccc3)cc(n1)C2.[Pr+3] [Ph{Pr}]	51.7 h	–	too unstable	too unstable	–	too unstable	too unstable	–	–	–	–	–	0.467 h	–	–
O=C([O-])CN1CCN2CCN(CC(=O)[O-])CCN(CC1)Cc1cccc(n1)-c1cnnn1Cc1cc(-c3ccccc3)cc(n1)C2.[Sm+3] [Ph{Sm}]	13400 h	–	–	too unstable	–	–	too unstable	–	1.46 h	–	–	–	111 h	–	–
O=C([O-])CN1CCN2CCN(CC(=O)[O-])CCN(CC1)Cc1cccc(n1)-c1cnnn1Cc1cc(-c3ccccc3)cc(n1)C2.[Eu+3] [Ph{Eu}]	–	–	–	too unstable	–	–	too unstable	too stable	7.3 h	–	too stable	–	380 h	–	–
